Reference: the NIST ThermoML archive (doi:10.1021/je0601457)

Experiment: xn = mol fraction of the nth substance listed

c1cnccn1 [pyrazine] + O=C=O
Fluid (supercritical or subcritical phases), Linear displacement technique
Details	mass density [kg/m3]
339.45 K, 13280 kPa, x1 = 0.074	750
340.95 K, 12380 kPa, x1 = 0.116	693
340.95 K, 15210 kPa, x1 = 0.116	739
345.05 K, 12450 kPa, x1 = 0.224	823
345.05 K, 19340 kPa, x1 = 0.224	858
345.55 K, 10380 kPa, x1 = 0.397	995
345.55 K, 12480 kPa, x1 = 0.397	999
345.55 K, 12860 kPa, x1 = 0.397	1002
347.75 K, 13030 kPa, x1 = 0.177	758
347.75 K, 14100 kPa, x1 = 0.177	770
347.75 K, 16790 kPa, x1 = 0.177	792
348.05 K, 12310 kPa, x1 = 0.308	965
348.05 K, 17620 kPa, x1 = 0.308	986
348.05 K, 19720 kPa, x1 = 0.308	996
348.95 K, 13380 kPa, x1 = 0.09	684
348.95 K, 13690 kPa, x1 = 0.09	683
348.95 K, 16450 kPa, x1 = 0.09	771
350.55 K, 13760 kPa, x1 = 0.116	665
350.55 K, 15520 kPa, x1 = 0.116	707
350.85 K, 13410 kPa, x1 = 0.146	708
351.95 K, 13450 kPa, x1 = 0.074	604
351.95 K, 16280 kPa, x1 = 0.074	719
352.35 K, 11140 kPa, x1 = 0.019	335
352.35 K, 11210 kPa, x1 = 0.019	352
352.35 K, 12310 kPa, x1 = 0.019	415
352.35 K, 12480 kPa, x1 = 0.019	428
352.35 K, 12790 kPa, x1 = 0.019	443
360.85 K, 14860 kPa, x1 = 0.116	630
360.85 K, 17720 kPa, x1 = 0.116	695
362.25 K, 14720 kPa, x1 = 0.177	709
362.25 K, 14830 kPa, x1 = 0.177	712
362.25 K, 19480 kPa, x1 = 0.177	761
362.35 K, 14660 kPa, x1 = 0.224	779
362.35 K, 18660 kPa, x1 = 0.224	802
365.65 K, 15210 kPa, x1 = 0.09	591
366.25 K, 14930 kPa, x1 = 0.074	542
366.25 K, 15760 kPa, x1 = 0.074	547
366.25 K, 16860 kPa, x1 = 0.074	511
369.65 K, 14550 kPa, x1 = 0.397	964
369.65 K, 16410 kPa, x1 = 0.397	968
369.65 K, 20720 kPa, x1 = 0.397	982
372.55 K, 11480 kPa, x1 = 0.495	959
372.55 K, 12720 kPa, x1 = 0.495	962
372.55 K, 15000 kPa, x1 = 0.495	970

linear displacement
Details	mass density [kg/m3]
339.45 K, Liquid, x1 = 0.074	695
340.95 K, Liquid, x1 = 0.116	684
345.05 K, Liquid, x1 = 0.224	816
345.55 K, Liquid, x1 = 0.397	991
347.75 K, Liquid, x1 = 0.177	751
348.05 K, Liquid, x1 = 0.308	957
348.95 K, Liquid, x1 = 0.09	672
350.55 K, Liquid, x1 = 0.116	651
350.85 K, Liquid, x1 = 0.146	703
351.95 K, Liquid, x1 = 0.074	589
352.35 K, Gas, x1 = 0.019	324
360.85 K, Liquid, x1 = 0.116	620
362.25 K, Liquid, x1 = 0.177	704
362.35 K, Liquid, x1 = 0.224	770
365.65 K, Liquid, x1 = 0.09	582
366.25 K, Liquid, x1 = 0.074	532
369.65 K, Liquid, x1 = 0.397	952
372.55 K, Liquid, x1 = 0.495	955
